Source: patent US20240287130A1, “COMPOUND FOR ALCOHOLIC LIVER INJURY, PREPARATION METHOD, COMPOSITION, FOOD AND USE” (CHENGDU INNOHEPOREM BIOTECH CO., LTD., priority 2021, published 2024)

Tests used:
[1] = test system: mouse alcoholic liver injury model; assay: Effect of product (a) on alcoholic liver injury (Example 6): six months alcohol feeding, then one month of intervention in normal liquid feed; format: in vivo, C57 mice; conditions: one month intervention after six months alcohol; for proportion of fat deposition in the total liver area (oil red O staining): non-intervention group 0.68, FIG. 16; for ALT level in serum: normal diet group 12.03, non-intervention group 44.84, FIG. 14
From the text: (§1) This experiment used the Lieber-DeCarli alcoholic fatty liver modeling method. Lieber-DeCarli feed was purchased from Nantong Trophic Animal Feed High-Tech Co., Ltd. The specific method is as follows: C57 mice (purchased from TROPHIC Animal Feed High-Tech Co. Ltd, China, the same below) were fed with normal solid maintenance feed, adapted to the feeding environment for at least one week, then were fed with maltodextrin diet for a week of transition, and then fed with Lieber-DeCarli feed. The alcohol concentration of Lieber-DeCarli feed was 3% in the first week, and the alcohol concentration was increased by 0.5% every week until reaching an alcohol concentration of 5%. The animals were continued to be fed with feed containing 5% alcohol. C57 mice were fed with Lieber-DeCarli feed for 12 weeks to establish a model of alcoholic liver injury.
30 C57 mice were subjected to adaptive feeding for 1 week, and then randomly divided into a normal diet group (n=6) and an alcohol diet group (n=24) according to body weight. In the alcohol diet group, a mouse alcoholic liver injury model was established by feeding mice with Lieber-DeCarli feed for 24 weeks according to the method of Example 3. After the modeling was completed, the mice were randomly divided into 4 groups, namely the non-intervention group (EtOH(6m)+Normal(1m), n=6), the zinc glutathione intervention group (EtOH(6m)+Zn(GSH)2(1m), n=6), the zinc intervention group (EtOH(6m)+Zn(1m), n=6), and the glutathione intervention group (EtOH(6m)+GSH(1m), n=6). The remaining normal diet group was named the normal group (Normal (7m) group, n=5).
Different intervention substances were added to the normal liquid feed for 1 month. The feed of the zinc glutathione intervention group was added with Zn(GSH)2SO4 at an amount of 1 mg Zn per 10 mL of feed (GSH was 9.35 mg/10 mL) for one month of intervention. The feed of the zinc intervention group was added with ZnSO4 at an amount of 1 mg Zn per 10 mL of feed. The feed of the glutathione intervention group was added with glutathione at an amount of 9.35 mg GSH per 10 mL of feed.
(§2) At the end of the experiment in each group, the animals were weighed, blood was collected, and materials were collected.
(§3) Blood collection: orbital blood collection was performed.
(§4) Liver: The animals were killed by cervical dislocation. The mice were cut along the midline of the abdomen to expose the abdomen and the liver was then peeled off. The intact liver was peeled off and separated into the different lobes.
(§5) Tissue distribution of each lobe of the liver: The left lobe was separated into three sections and the right lobe was separated into two sections. The first sections of the left lobe and right lobe were used to make pathological sections for histological examination. The second sections of the left lobe and right lobe were used for zinc measurement. The remaining third section of the left lobe was stored in liquid nitrogen for analysis such as molecular detection.
Biochemical analysis of serum: Alanine aminotransferase (ALT) in blood samples was analyzed using a colorimetric method.
Oil red O staining of frozen sections: Frozen sections were stained with ORO stain solution and the nuclei were counterstained with hematoxylin. […] The area of the ORO positive area was measured using Image Pro-Plus 6.0 software, and the ratio of the positive area to the total area was calculated.
(§6) Data processing and statistical analysis: All experimental data herein were analyzed using GraphPad Prime 6 statistical analysis software. Student t test was used for single factor analysis between two groups, and p<0.05 was considered to be statistically different.
Determination method: After blood was collected, the collected whole blood was placed at 25° C. for 30 minutes. After the blood coagulated, it was centrifuged at 3500 rpm for 15 minutes to separate the serum, and various parameters were measured timely. […]

[2] = test system: mouse alcoholic liver injury model; assay: Effect of product (a) on alcoholic liver injury (Example 4): Lieber-DeCarli alcohol diet, three months of intervention; format: in vivo, C57 mice
From the text: as §1
30 C57 mice were subjected to adaptive feeding for 1 week, and then randomly divided into a normal diet group (n=9) and an alcohol diet group (n=21) according to body weight. In the alcohol diet group, a mouse alcoholic liver injury model was established by feeding mice with Lieber-DeCarli feed for 12 weeks according to the method of Example 3. After the modeling was completed, the mice were randomly divided into 3 groups, one of which was the pre-intervention group (EtOH (3m), n=3) (meanwhile, 4 animals were randomly selected from the normal diet group to be control of the pre-intervention group (Normal (3m) group, n=4). The pre-intervention group and the pre-intervention control group were collected immediately after the modeling was completed. The other two groups were the non-intervention group (EtOH (6m), n=10), and the zinc/glutathione intervention group (EtOH(6m)/Zn(GSH)2(3m), n=8) respectively. The remaining normal diet group was named the normal group (Normal (6m) group, n=5).
Zn(GSH)2·SO4 was added to the daily Lieber-DeCarli alcohol diet at the amount of 1 mg Zn/10 mL of feed for three months of invention.
as §2, §3
as §4, with “lobes. The left lobe was separated into three sections using a blade, and the right lobe was separated into two sections.” for “lobes.”
as §5, with “Other lobes were” for “The remaining third section of the left lobe was”, “detection. […]” for “detection.”
Measurement of zinc concentration: The zinc concentration in liver tissue was determined using atomic absorption spectrometry (atomic absorption spectrometer: ICE3500, Thermo Company).
as §6

[3] = EtOH(6 m)/Zn(GSH)2 group, end of experiment

| Molecule | ALT level relative to the zinc glutathione intervention group [1] | proportion of fat deposition in the total liver area (oil red O staining) [1] | ALT level in serum [1] | fat deposition (oil red O staining of liver) ([2]; EtOH(6m)/Zn(GSH)2(3m) vs non-intervention group, FIG. 9) | Liver weight [2, 3] [g] | Liver weight/final body weight [2, 3] [%] | Final body weight ([2]; EtOH(6 m)/Zn(GSH)2 group, end of experiment, average) [g] | survival rate ([2]; alcohol-fed mice, intervention after modeling, 1 mg Zn/10 mL feed, FIG. 8) | zinc content in the liver ([2]; atomic absorption spectrometry, intervention group, FIG. 12) | area of fat deposition (percentage of fat deposition in the total liver area) ([2]; oil red O staining, vs non-intervention group, FIG. 10) | vesicular steatosis (HE staining) ([2]; vs non-intervention group, FIG. 11) |
| --- | --- | --- | --- | --- | --- | --- | --- | --- | --- | --- | --- |
| O=S(=O)([O-])[O-].[Zn+2] [zinc, ZnSO4] | about 2 times | 0.36 | 22.03 |  |  |  |  |  |  |  |  |
| [Zn^2+(L-GSH)2]·SO4^2− [Zn(GSH)2·SO4] |  | 0.21 | 8.96 | significantly improved | 1.26 ± 0.25 | 5.62 ± 0.80 | 22.53 ± 1.67 | significantly increased | significantly increased | significantly reduced | significantly reduced |
| N[C@@H](CCC(=O)N[C@@H](CS)C(=O)NCC(=O)O)C(=O)O [glutathione, N-(N-L-γ-glutamyl-L-cysteinyl)-glycine] | about 2 times | 0.62 | 22.86 |  |  |  |  |  |  |  |  |
